From the CheMixHub viscosity set
Where “and” joins values, the source holds several entries; their conditions need not be identical. Identical values can stand only once. ± gives the uncertainty stated by the source.

How the values were obtained:
[1] = xn = mol fraction of the nth substance listed; details: 101 kPa

**Q.** What does the source list for `CCCCN(CCO)CCO`?
**A.** viscosity (303.15 K, 101 kPa): 41.29 ± 0.6 mPa·s; viscosity (308.15 K, 101 kPa): 31.59 ± 0.49 mPa·s; viscosity (313.15 K, 101 kPa): 24.47 ± 0.37 mPa·s; viscosity (318.15 K, 101 kPa): 19.39 ± 0.29 mPa·s; viscosity (323.15 K, 101 kPa): 15.47 ± 0.25 mPa·s

**Q.** With `C1C[C@@H]2[C@H]3CC[C@H](C3)[C@@H]2C1` as the compound, how does the viscosity (293.15 K, 100 kPa) read?
**A.** 2.974 ± 0.065 mPa·s and 3.07 ± 0.31 mPa·s

**Q.** What about the viscosity (298.15 K, 100 kPa) of the same compound?
**A.** 2.785 ± 0.025 mPa·s and 2.694 ± 0.059 mPa·s

**Q.** What about the viscosity (298.15 K, 101 kPa) of the same compound?
**A.** 2.77 ± 0.042 mPa·s

**Q.** What about the viscosity (298.15 K, 101.33 kPa) of the same compound?
**A.** 2.769 ± 0.17 mPa·s

**Q.** And the viscosity (303.15 K, 100 kPa)?
**A.** 2.535 ± 0.023 mPa·s and 2.454 ± 0.054 mPa·s

**Q.** And the viscosity (308.15 K, 100 kPa)?
**A.** 2.243 ± 0.049 mPa·s

**Q.** What about the viscosity (308.15 K, 101.33 kPa) of the same compound?
**A.** 2.283 ± 0.14 mPa·s

**Q.** With `CCC(=O)O` as the compound, how does the viscosity (293.15 K, 101 kPa) read?
**A.** 1.1 ± 0.01 mPa·s and 1.07 ± 0.023 mPa·s and 1.102 ± 0.028 mPa·s

**Q.** And the viscosity (293.15 K, 101.33 kPa)?
**A.** 1.103 ± 0.054 mPa·s and 1.156 ± 0.012 mPa·s and 1.101 ± 0.03 mPa·s

**Q.** And the viscosity (298.15 K, 101.33 kPa)?
**A.** 1.03 ± 0.05 mPa·s

**Q.** And the viscosity (303.15 K, 101.33 kPa)?
**A.** 0.96 ± 0.05 mPa·s and 0.944 ± 0.026 mPa·s

**Q.** What about the viscosity (313.15 K, 101.33 kPa) of the same compound?
**A.** 0.8453 ± 0.043 mPa·s and 0.901 ± 0.009 mPa·s and 0.84 ± 0.04 mPa·s

**Q.** And the viscosity (318.15 K, 101.33 kPa)?
**A.** 0.783 ± 0.021 mPa·s

**Q.** What about the viscosity (323.15 K, 101 kPa) of the same compound?
**A.** 0.75 ± 0.01 mPa·s

**Q.** And the viscosity (323.15 K, 101.33 kPa)?
**A.** 0.8102 ± 0.041 mPa·s

**Q.** What does the source list for `CCCC[n+]1ccc(C)cc1.F[B-](F)(F)F`?
**A.** viscosity (298.15 K, 101 kPa): 196.2 ± 73 mPa·s; viscosity (313.15 K, 101 kPa): 80.85 ± 11 mPa·s; viscosity (323.15 K, 101 kPa): 50.22 ± 1.4 mPa·s

**Q.** What does the source list for `CC12CCC(CC1)C(C)(C)O2`?
**A.** viscosity (298.15 K, 101 kPa): 2.6 ± 0.05 mPa·s; viscosity (303.15 K, 101 kPa): 2.066 ± 0.062 mPa·s; viscosity (308.15 K, 101 kPa): 1.856 ± 0.056 mPa·s; viscosity (313.15 K, 101 kPa): 1.676 ± 0.051 mPa·s; viscosity (318.15 K, 101 kPa): 1.73 ± 0.04 mPa·s

**Q.** For `CC(=O)C=C(C)C`, which viscosity (298.15 K, 101 kPa) is on record?
**A.** 0.876 ± 0.011 mPa·s

**Q.** Which results are given for `CCCCCCCCCCCCC`?
**A.** viscosity (293.15 K, 100 kPa): 1.8 ± 0.08 mPa·s and 1.803 mPa·s; viscosity (298.15 K, 100 kPa): 1.71 ± 0.037 mPa·s; viscosity (298.15 K, 103 kPa): 1.63 ± 0.042 mPa·s; viscosity (308.15 K, 100 kPa): 1.428 ± 0.031 mPa·s and 1.319 ± 0.13 mPa·s; viscosity (308.15 K, 103 kPa): 1.356 ± 0.042 mPa·s; viscosity (318.15 K, 100 kPa): 1.215 ± 0.026 mPa·s; viscosity (318.15 K, 103 kPa): 1.146 ± 0.041 mPa·s; viscosity (323.15 K, 100 kPa): 1.124 ± 0.024 mPa·s and 1.1 ± 0.05 mPa·s and 1.104 mPa·s

**Q.** With `CNN` as the compound, how does the viscosity (293.15 K, 101.3 kPa) read?
**A.** 0.96 ± 0.03 mPa·s

**Q.** Which results are given for `Nc1cccc(Cl)c1`?
**A.** viscosity (298.15 K, 101 kPa): 3.495 ± 0.093 mPa·s; viscosity (303.15 K, 101 kPa): 3.256 ± 0.83 mPa·s

**Q.** For `CCCCCCCN`, which viscosity (303.15 K, 101 kPa) is on record?
**A.** 0.8789 ± 0.0074 mPa·s

**Q.** Which viscosity (293.15 K, 101.3 kPa) does the source give for `NN` here?
**A.** 0.94 ± 0.03 mPa·s

**Q.** And the viscosity (303 K, 101 kPa)?
**A.** 0.85 ± 0.027 mPa·s

**Q.** And the viscosity (313 K, 101 kPa)?
**A.** 0.75 ± 0.024 mPa·s

**Q.** With `CCC(C)c1ccccc1` (centres undefined) as the compound, how does the viscosity (293.15 K, 102 kPa) read?
**A.** 0.932 ± 0.021 mPa·s

**Q.** What about the viscosity (303.15 K, 102 kPa) of the same compound?
**A.** 0.812 ± 0.021 mPa·s

**Q.** What about the viscosity (313.15 K, 102 kPa) of the same compound?
**A.** 0.712 ± 0.021 mPa·s

**Q.** And the viscosity (323.15 K, 102 kPa)?
**A.** 0.632 ± 0.021 mPa·s

**Q.** Which viscosity (303.15 K, 100 kPa) does the source give for `CCCCN(CCO)CCCC` here?
**A.** 4.6 mPa·s

**Q.** With `ClCCCCCl` as the compound, how does the viscosity (298.15 K, 101 kPa) read?
**A.** 1.319 ± 0.012 mPa·s

**Q.** What about the viscosity (303.15 K, 101 kPa) of the same compound?
**A.** 1.218 ± 0.011 mPa·s

**Q.** And the viscosity (308.15 K, 101 kPa)?
**A.** 1.128 ± 0.011 mPa·s

**Q.** And the viscosity (313.15 K, 101 kPa)?
**A.** 1.043 ± 0.0099 mPa·s

**Q.** For `Cc1ccccc1Cl`, which viscosity (298.15 K, 100 kPa) is on record?
**A.** 0.971 ± 0.059 mPa·s

**Q.** What about the viscosity (303.15 K, 100 kPa) of the same compound?
**A.** 0.886 ± 0.05 mPa·s

**Q.** And the viscosity (303.15 K, 101 kPa)?
**A.** 0.886 ± 0.023 mPa·s

**Q.** And the viscosity (308.15 K, 100 kPa)?
**A.** 0.808 ± 0.05 mPa·s and 0.857 ± 0.052 mPa·s

**Q.** What about the viscosity (308.15 K, 101 kPa) of the same compound?
**A.** 0.808 ± 0.022 mPa·s

**Q.** What about the viscosity (313.15 K, 100 kPa) of the same compound?
**A.** 0.728 ± 0.05 mPa·s

**Q.** And the viscosity (313.15 K, 101 kPa)?
**A.** 0.741 ± 0.012 mPa·s and 0.728 ± 0.02 mPa·s

**Q.** And the viscosity (318.15 K, 100 kPa)?
**A.** 0.642 ± 0.05 mPa·s and 0.763 ± 0.046 mPa·s

**Q.** What about the viscosity (318.15 K, 101 kPa) of the same compound?
**A.** 0.642 ± 0.019 mPa·s

**Q.** Which results are given for `CC12CCC(CC1)C(C)(C)O2` + Cc1cccc(O)c1?
**A.** viscosity ([1]; 303.15 K, x1 = 0.065): 10.48 ± 0.27 mPa·s; viscosity ([1]; 303.15 K, x1 = 0.1352): 10.69 ± 0.27 mPa·s; viscosity ([1]; 303.15 K, x1 = 0.2114): 10.47 ± 0.26 mPa·s; viscosity ([1]; 303.15 K, x1 = 0.2943): 9.802 ± 0.25 mPa·s; viscosity ([1]; 303.15 K, x1 = 0.3848): 8.746 ± 0.23 mPa·s; viscosity ([1]; 303.15 K, x1 = 0.4841): 7.564 ± 0.2 mPa·s; viscosity ([1]; 303.15 K, x1 = 0.5934): 6.28 ± 0.17 mPa·s; viscosity ([1]; 303.15 K, x1 = 0.7145): 4.91 ± 0.14 mPa·s; viscosity ([1]; 303.15 K, x1 = 0.8492): 3.559 ± 0.1 mPa·s; viscosity ([1]; 308.15 K, x1 = 0.065): 8.331 ± 0.22 mPa·s; viscosity ([1]; 308.15 K, x1 = 0.1352): 8.539 ± 0.23 mPa·s; viscosity ([1]; 308.15 K, x1 = 0.2114): 8.426 ± 0.22 mPa·s; viscosity ([1]; 308.15 K, x1 = 0.2943): 7.994 ± 0.21 mPa·s; viscosity ([1]; 308.15 K, x1 = 0.3848): 7.155 ± 0.19 mPa·s; viscosity ([1]; 308.15 K, x1 = 0.4841): 6.222 ± 0.17 mPa·s; viscosity ([1]; 308.15 K, x1 = 0.5934): 5.16 ± 0.15 mPa·s; viscosity ([1]; 308.15 K, x1 = 0.7145): 4.043 ± 0.12 mPa·s; viscosity ([1]; 308.15 K, x1 = 0.8492): 3.002 ± 0.089 mPa·s; viscosity ([1]; 313.15 K, x1 = 0.065): 6.756 ± 0.19 mPa·s; viscosity ([1]; 313.15 K, x1 = 0.1352): 6.947 ± 0.19 mPa·s; viscosity ([1]; 313.15 K, x1 = 0.2114): 6.878 ± 0.19 mPa·s; viscosity ([1]; 313.15 K, x1 = 0.2943): 6.474 ± 0.18 mPa·s; viscosity ([1]; 313.15 K, x1 = 0.3848): 5.892 ± 0.17 mPa·s; viscosity ([1]; 313.15 K, x1 = 0.4841): 5.161 ± 0.15 mPa·s; viscosity ([1]; 313.15 K, x1 = 0.5934): 4.295 ± 0.13 mPa·s; viscosity ([1]; 313.15 K, x1 = 0.7145): 3.348 ± 0.1 mPa·s; viscosity ([1]; 313.15 K, x1 = 0.8492): 2.505 ± 0.076 mPa·s
